The term IC50 denotes the concentration at which inhibition is half-maximal. Low readings indicate greater potency in that assay, high ones weaker potency in that assay.

Data on 47 compounds can be found in US20240208968A1, “ALPHA V BETA 6 AND ALPHA V BETA 1 INTEGRIN INHIBITORS AND USES THEREOF” (DiCE Molecules SV, Inc., priority 2021, published 2024).

Assay [1] addresses αvβ1 (Homo sapiens, UniProt P05556+P06756). Description: Solid Phase Integrin αvβ1 Assay. The assay is classed as binding. The method in brief: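 Wells coated with 1 µg/mL recombinant TGFb1-LAP and blocked with 2% BSA/TBST, 1 mM MnCl2; αvβ1 (added at 0.2 µg/mL) and compound incubated 90 min at room temperature. Bound integrin detected by streptavidin-HRP (20 min) and TMB after Mn-containing washes; IC50 by four-parameter logistic fit.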

For assay [2], the target named is αvβ6 (Homo sapiens, UniProt P06756+P18564). The assay can be described thus: Solid Phase Integrin αvβ6 Assay. Type of assay: binding. The method in brief: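 Plates coated with 1 μg/mL recombinant TGFb1-LAP; compounds and αvβ6 (0.2 μg/mL diluted stock) incubated 1 h at room temperature in 2% BSA/TBST with 1 mM MnCl2. Bound integrin detected with streptavidin-HRP and TMB; IC50 from four-parameter logistic fits.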
αvβ6, sequence (P06756 31-992 limits assumed): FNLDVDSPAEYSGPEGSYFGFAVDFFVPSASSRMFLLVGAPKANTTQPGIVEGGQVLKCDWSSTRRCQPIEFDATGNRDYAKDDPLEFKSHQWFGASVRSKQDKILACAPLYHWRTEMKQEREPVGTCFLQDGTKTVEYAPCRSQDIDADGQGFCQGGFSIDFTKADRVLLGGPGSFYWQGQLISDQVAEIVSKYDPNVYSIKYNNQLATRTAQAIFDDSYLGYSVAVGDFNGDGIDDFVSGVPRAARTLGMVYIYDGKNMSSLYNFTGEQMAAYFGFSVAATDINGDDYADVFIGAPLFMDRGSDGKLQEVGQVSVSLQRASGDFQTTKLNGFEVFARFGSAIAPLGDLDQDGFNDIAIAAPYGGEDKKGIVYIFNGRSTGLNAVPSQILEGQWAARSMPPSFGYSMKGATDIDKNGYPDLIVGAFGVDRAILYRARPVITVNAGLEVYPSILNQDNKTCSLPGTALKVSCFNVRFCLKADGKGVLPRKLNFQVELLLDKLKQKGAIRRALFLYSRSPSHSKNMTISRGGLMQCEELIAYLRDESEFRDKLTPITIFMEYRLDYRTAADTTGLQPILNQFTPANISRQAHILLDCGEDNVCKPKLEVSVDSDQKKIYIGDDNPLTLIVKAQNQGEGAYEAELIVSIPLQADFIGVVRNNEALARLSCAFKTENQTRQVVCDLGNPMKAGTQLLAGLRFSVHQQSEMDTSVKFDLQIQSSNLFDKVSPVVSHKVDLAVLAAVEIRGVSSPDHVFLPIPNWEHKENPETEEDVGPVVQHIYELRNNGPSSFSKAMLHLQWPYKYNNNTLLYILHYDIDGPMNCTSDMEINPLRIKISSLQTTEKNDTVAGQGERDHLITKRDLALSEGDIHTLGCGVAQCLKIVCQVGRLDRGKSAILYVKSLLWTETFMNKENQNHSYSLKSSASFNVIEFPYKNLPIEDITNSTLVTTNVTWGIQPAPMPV
αvβ6, sequence (P18564 22-707 limits assumed): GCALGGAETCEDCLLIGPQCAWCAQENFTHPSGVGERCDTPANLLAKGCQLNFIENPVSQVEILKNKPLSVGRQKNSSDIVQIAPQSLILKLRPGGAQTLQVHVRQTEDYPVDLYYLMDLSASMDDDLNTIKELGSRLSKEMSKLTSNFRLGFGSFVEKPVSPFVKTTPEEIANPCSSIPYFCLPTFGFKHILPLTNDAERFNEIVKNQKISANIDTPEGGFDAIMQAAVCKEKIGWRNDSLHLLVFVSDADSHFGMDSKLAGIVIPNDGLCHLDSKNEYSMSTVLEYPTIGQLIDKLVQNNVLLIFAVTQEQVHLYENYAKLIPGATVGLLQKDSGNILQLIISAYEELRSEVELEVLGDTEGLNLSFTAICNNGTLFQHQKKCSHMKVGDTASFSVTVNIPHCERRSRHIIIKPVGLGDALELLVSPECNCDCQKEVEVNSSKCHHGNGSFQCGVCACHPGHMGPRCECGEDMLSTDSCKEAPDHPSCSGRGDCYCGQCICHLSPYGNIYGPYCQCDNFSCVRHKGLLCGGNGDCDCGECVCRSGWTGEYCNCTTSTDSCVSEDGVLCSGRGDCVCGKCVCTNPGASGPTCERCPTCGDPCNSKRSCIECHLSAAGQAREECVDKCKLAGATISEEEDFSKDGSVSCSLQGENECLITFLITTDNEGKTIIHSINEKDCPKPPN

αvβ1, sequence (P06756 31-992 limits assumed): as the sequence (P06756 31-992 limits assumed) above
αvβ1, sequence (P05556 21-728 limits assumed): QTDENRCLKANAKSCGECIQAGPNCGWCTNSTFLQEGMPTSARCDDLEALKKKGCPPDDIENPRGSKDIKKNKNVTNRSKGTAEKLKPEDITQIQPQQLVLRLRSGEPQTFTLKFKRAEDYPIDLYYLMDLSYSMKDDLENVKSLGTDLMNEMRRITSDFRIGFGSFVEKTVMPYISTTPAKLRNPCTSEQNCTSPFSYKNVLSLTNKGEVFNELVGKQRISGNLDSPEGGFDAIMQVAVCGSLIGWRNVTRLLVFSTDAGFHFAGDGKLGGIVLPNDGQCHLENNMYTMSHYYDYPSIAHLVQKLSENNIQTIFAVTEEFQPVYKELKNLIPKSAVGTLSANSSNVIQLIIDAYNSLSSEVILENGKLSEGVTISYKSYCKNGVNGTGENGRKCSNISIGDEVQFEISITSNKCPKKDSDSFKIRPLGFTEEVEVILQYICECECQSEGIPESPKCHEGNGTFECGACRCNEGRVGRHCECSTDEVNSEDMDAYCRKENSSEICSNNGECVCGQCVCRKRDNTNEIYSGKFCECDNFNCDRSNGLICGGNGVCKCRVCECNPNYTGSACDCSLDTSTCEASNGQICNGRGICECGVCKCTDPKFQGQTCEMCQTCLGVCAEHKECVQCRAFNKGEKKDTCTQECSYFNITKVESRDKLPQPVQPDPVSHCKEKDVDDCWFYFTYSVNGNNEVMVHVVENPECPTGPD

As to `O=C(O)[C@H](CCO[C@@H]1CCCN(Cc2ccc3c(n2)NCCC3)C1)NC(=O)C12CCC(CC1)CC2` [Compound 397], the half-inhibitory concentration (IC50) in assay [1] is 100 to 1000 nM; in assay [2], greater than 1000 nM.
As to `O=C(O)[C@H](CCO[C@@H]1CCCN(CCc2ccc3c(n2)NCCC3)C1)NC(=O)C12CCC(CC1)CC2` [Compound 398], the IC50 in assay [1] and in assay [2] was less than 100 nM each time.
On to `O=C(O)[C@H](CCO[C@@H]1CCCN(CCCCc2ccc3c(n2)NCCC3)C1)NC(=O)C12CCC(CC1)CC2` [Compound 399], for which the concentration for half-maximal inhibition (IC50) in assay [1] and in assay [2] was less than 100 nM each time.
In the case of `O=C(O)[C@H](CO[C@@H]1CCCN(CCCc2ccc3c(n2)NCCC3)C1)NC(=O)C12CCC(CC1)CC2` [Compound 400], the IC50 in assay [1] and in assay [2] was less than 100 nM throughout.
For `O=C(O)[C@@H](CO[C@@H]1CCCN(CCCCc2ccc3c(n2)NCCC3)C1)NC(=O)C12CCC(CC1)CC2` [Compound 401], the half-maximal inhibitory concentration (IC50) in assay [1] and in assay [2] was greater than 1000 nM in each case.
`O=C(O)[C@H](CO[C@@H]1CCCN(CCCCc2ccc3c(n2)NCCC3)C1)NC(=O)C12CCC(CC1)CC2` [Compound 402]: the figures for the IC50 in assay [1] and in assay [2] were 100 to 1000 nM and less than 100 nM, respectively.
The like results for `O=C(O)[C@@H](CO[C@@H]1CCCN(Cc2ccc3c(n2)NCCC3)C1)NC(=O)C12CCC(CC1)CC2` [Compound 403] were, in that order, greater than 1000 nM and greater than 1000 nM.
The like results for `O=C(O)[C@H](CO[C@@H]1CCCN(Cc2ccc3c(n2)NCCC3)C1)NC(=O)C12CCC(CC1)CC2` [Compound 404] were, in that order, greater than 1000 nM and greater than 1000 nM.
With `O=C(O)[C@@H](CCO[C@@H]1CCCN(CCCCc2ccc3c(n2)NCCC3)C1)Nc1ncnc2ccccc12` [Compound 405], the IC50 in assay [1] was 100 to 1000 nM; in assay [2], less than 100 nM.
The like results for `O=C(O)[C@@H](CCO[C@@H]1CCCN(CCc2ccc3c(n2)NCCC3)C1)Nc1ncnc2ccccc12` [Compound 406] were, in that order, 100 to 1000 nM and 100 to 1000 nM.
The like results for `O=C(O)[C@@H](CCO[C@@H]1CCCN(Cc2ccc3c(n2)NCCC3)C1)Nc1ncnc2ccccc12` [Compound 407] were, in that order, greater than 1000 nM and greater than 1000 nM.
The like results for `O=C(O)[C@@H](CO[C@@H]1CCCN(CCCc2ccc3c(n2)NCCC3)C1)Nc1ncnc2ccccc12` [Compound 408] were, in that order, greater than 1000 nM and greater than 1000 nM.
Consider `O=C(O)[C@H](CO[C@@H]1CCCN(CCCCc2ccc3c(n2)NCCC3)C1)Nc1ncnc2ccccc12` [Compound 409], for which the half-maximal inhibitory concentration (IC50) in assay [1] is greater than 1000 nM; in assay [2], less than 100 nM.
The like results for `O=C(O)[C@@H](CO[C@@H]1CCCN(CCCCc2ccc3c(n2)NCCC3)C1)Nc1ncnc2ccccc12` [Compound 410] were, in that order, greater than 1000 nM and greater than 1000 nM.
The like results for `O=C(O)[C@@H](CO[C@@H]1CCCN(Cc2ccc3c(n2)NCCC3)C1)Nc1ncnc2ccccc12` [Compound 411] were, in that order, greater than 1000 nM and greater than 1000 nM.
As to `O=C(O)C[C@@H](NC(=O)[C@@H]1CCCN(CCCc2ccc3c(n2)NCCC3)C1)c1cccc(OC2COC2)c1` [Compound 412], the concentration for half-maximal inhibition (IC50) in assay [1] and in assay [2] was less than 100 nM throughout.
Regarding `O=C(O)C[C@@H](NC(=O)[C@@H]1CCCN(CCCc2ccc3c(n2)NCCC3)C1)c1cnc2ccccc2c1` [Compound 413], the half-maximal inhibitory concentration (IC50) in assay [1] and in assay [2] was less than 100 nM in each case.
As to `O=C(O)C[C@@H](CC(=O)N[C@@H]1CCN(CCCCc2ccc3c(n2)NCCC3)C1)c1ccccc1` [Compound 414], the 50% inhibitory concentration (IC50) in assay [1] is less than 100 nM; in assay [2], greater than 1000 nM.
Regarding `O=C(O)C[C@H](CC(=O)N[C@@H]1CCN(CCCCc2ccc3c(n2)NCCC3)C1)c1ccccc1` [Compound 415], the IC50 in assay [1] and in assay [2] was 100 to 1000 nM each time.
In the case of `O=C(O)C[C@H](CC(=O)N[C@@H]1CCN(C(=O)CCCc2ccc3c(n2)NCCC3)C1)c1ccccc1` [Compound 416], the 50% inhibitory concentration (IC50) in assay [1] and in assay [2] was greater than 1000 nM in each case.
`O=C(O)C[C@@H](CC(=O)N[C@@H]1CCN(C(=O)CCCc2ccc3c(n2)NCCC3)C1)c1ccccc1` [Compound 417]: the IC50 was less than 100 nM in assay [1] and 100 to 1000 nM in assay [2].
Consider `O=C(CC[C@H](C(=O)O)c1ccccc1)N[C@@H]1CCN(C(=O)CCCc2ccc3c(n2)NCCC3)C1` [Compound 418], for which the IC50 in assay [1] and in assay [2] was greater than 1000 nM throughout.
Consider `O=C(CC[C@@H](C(=O)O)c1ccccc1)N[C@@H]1CCN(C(=O)CCCc2ccc3c(n2)NCCC3)C1` [Compound 419], for which the IC50 in assay [1] and in assay [2] was greater than 1000 nM throughout.
Consider `O=C(CC[C@H](C(=O)O)c1ccccc1)N[C@@H]1CCN(CCCCc2ccc3c(n2)NCCC3)C1` [Compound 420], for which the IC50 in assay [1] and in assay [2] was greater than 1000 nM in each case.
Turning to `O=C(CC[C@@H](C(=O)O)c1ccccc1)N[C@@H]1CCN(CCCCc2ccc3c(n2)NCCC3)C1` [Compound 421], the IC50 in assay [1] and in assay [2] was greater than 1000 nM throughout.
Take `O=C(CC[C@H](C(=O)O)c1ccccc1)N[C@H]1CCN(CCCCc2ccc3c(n2)NCCC3)C1` [Compound 422]: the 50% inhibitory concentration (IC50) in assay [1] and in assay [2] was greater than 1000 nM in each case.
`O=C(CC[C@@H](C(=O)O)c1ccccc1)N[C@H]1CCN(C(=O)CCCc2ccc3c(n2)NCCC3)C1` [Compound 423]: the half-inhibitory concentration (IC50) in assay [1] and in assay [2] was greater than 1000 nM in each case.
On to `O=C(CC[C@H](C(=O)O)c1ccccc1)N[C@H]1CCN(CCCCc2ccc3c(n2)NCCC3)C1` [Compound 424], for which the half-maximal inhibitory concentration (IC50) in assay [1] and in assay [2] was greater than 1000 nM in each case.
For the compound `O=C(CC[C@@H](C(=O)O)c1ccccc1)N[C@H]1CCN(CCCCc2ccc3c(n2)NCCC3)C1` [Compound 425], the IC50 in assay [1] and in assay [2] was greater than 1000 nM each time.
`O=C(CC[C@H](NC(=O)C12CCC(CC1)CC2)C(=O)O)N[C@@H]1CCN(CCCCc2ccc3c(n2)NCCC3)C1` [Compound 426]: the IC50 in assay [1] and in assay [2] was less than 100 nM in each case.
On to `O=C(CC[C@@H](NC(=O)C12CCC(CC1)CC2)C(=O)O)N[C@@H]1CCN(CCCCc2ccc3c(n2)NCCC3)C1` [Compound 427], for which the IC50 in assay [1] and in assay [2] was greater than 1000 nM in each case.
On to `O=C(CC[C@H](NC(=O)C12CCC(CC1)CC2)C(=O)O)N[C@@H]1CCN(C(=O)CCCc2ccc3c(n2)NCCC3)C1` [Compound 428], for which the IC50 in assay [1] and in assay [2] was less than 100 nM each time.
`O=C(CC[C@@H](NC(=O)C12CCC(CC1)CC2)C(=O)O)N[C@@H]1CCN(C(=O)CCCc2ccc3c(n2)NCCC3)C1` [Compound 429]: the 50% inhibitory concentration (IC50) in assay [1] and in assay [2] was greater than 1000 nM throughout.
As to `O=C(CC[C@H](NC(=O)C12CCC(CC1)CC2)C(=O)O)N[C@H]1CCN(CCCCc2ccc3c(n2)NCCC3)C1` [Compound 430], the IC50 in assay [1] and in assay [2] was less than 100 nM in each case.
Turning to `O=C(CC[C@@H](NC(=O)C12CCC(CC1)CC2)C(=O)O)N[C@H]1CCN(CCCCc2ccc3c(n2)NCCC3)C1` [Compound 431], the half-maximal inhibitory concentration (IC50) in assay [1] and in assay [2] was greater than 1000 nM each time.
Turning to `O=C(CC[C@H](NC(=O)C12CCC(CC1)CC2)C(=O)O)N[C@H]1CCN(C(=O)CCCc2ccc3c(n2)NCCC3)C1` [Compound 432], the IC50 in assay [1] and in assay [2] was less than 100 nM throughout.
In the case of `O=C(CC[C@@H](NC(=O)C12CCC(CC1)CC2)C(=O)O)N[C@H]1CCN(C(=O)CCCc2ccc3c(n2)NCCC3)C1` [Compound 433], the IC50 in assay [1] and in assay [2] was greater than 1000 nM each time.
Take `O=C(CC[C@H](NC(=O)[C@H]1CCCN1S(=O)(=O)c1ccccc1)C(=O)O)N[C@H]1CCN(CCCCc2ccc3c(n2)NCCC3)C1` [Compound 434]: the 50% inhibitory concentration (IC50) in assay [1] and in assay [2] was less than 100 nM in each case.
As for `O=C(CC[C@H](NC(=O)[C@@H]1CCCN1S(=O)(=O)c1ccccc1)C(=O)O)N[C@H]1CCN(CCCCc2ccc3c(n2)NCCC3)C1` [Compound 435], the values for the IC50 in assay [1] and in assay [2] were less than 100 nM and 100 to 1000 nM, respectively.
With `O=C(CC[C@@H](NC(=O)[C@H]1CCCN1S(=O)(=O)c1ccccc1)C(=O)O)N[C@H]1CCN(CCCCc2ccc3c(n2)NCCC3)C1` [Compound 436], the values for the 50% inhibitory concentration (IC50) in assay [1] and in assay [2] were 100 to 1000 nM and greater than 1000 nM, respectively.
The like results for `O=C(CC[C@@H](NC(=O)[C@@H]1CCCN1S(=O)(=O)c1ccccc1)C(=O)O)N[C@H]1CCN(CCCCc2ccc3c(n2)NCCC3)C1` [Compound 437] were, in that order, less than 100 nM and greater than 1000 nM.
The like results for `O=C(CC[C@H](NC(=O)[C@H]1CCCN1S(=O)(=O)c1ccccc1)C(=O)O)N[C@H]1CCN(C(=O)CCCc2ccc3c(n2)NCCC3)C1` [Compound 438] were, in that order, less than 100 nM and less than 100 nM.
For `O=C(CC[C@H](NC(=O)[C@@H]1CCCN1S(=O)(=O)c1ccccc1)C(=O)O)N[C@H]1CCN(C(=O)CCCc2ccc3c(n2)NCCC3)C1` [Compound 439], the half-maximal inhibitory concentration (IC50) in assay [1] was less than 100 nM; in assay [2] it was 100 to 1000 nM.
The like results for `O=C(CC[C@@H](NC(=O)[C@H]1CCCN1S(=O)(=O)c1ccccc1)C(=O)O)N[C@H]1CCN(C(=O)CCCc2ccc3c(n2)NCCC3)C1` [Compound 440] were, in that order, 100 to 1000 nM and greater than 1000 nM.
The like results for `O=C(CC[C@@H](NC(=O)[C@@H]1CCCN1S(=O)(=O)c1ccccc1)C(=O)O)N[C@H]1CCN(C(=O)CCCc2ccc3c(n2)NCCC3)C1` [Compound 441] were, in that order, less than 100 nM and greater than 1000 nM.
For `O=C(O)C[C@H](CO[C@H]1CCCN(CCCc2ccc3c(n2)NCCC3)C1)c1ccccc1` [Compound 442], the IC50 in assay [1] and in assay [2] was 100 to 1000 nM throughout.
`O=C(O)[C@@H](CCO[C@H]1CCCN(CCCc2ccc3c(n2)NCCC3)C1)NC(=O)C12CCC(CC1)CC2` [Compound 443]: the IC50 in assay [1] and in assay [2] was 100 to 1000 nM each time.
